How the values were obtained:
[1] = system: RAW264.7; experiment: Antiinflammatory activity against mouse RAW264.7 cells assessed as inhibition of LPS-induced nitric oxide production at 10 uM after 24 hrs by Griess assay relative to control; format: functional; conditions: RAW264.7, 24 h
[2] = system: Homo sapiens; experiment: Inhibition of LPS-induced NF-kappaB (unknown origin) transactivation expressed in human SW480 cells at 10 uM administered 1 hr after LPS stimulation measured after 6 hrs by luciferase reporter gene assay relative to control; format: cell-based
[3] = system: A549; experiment: Induction of apoptosis in human A549 cells assessed as early apoptotic cells at 2.5 uM after 8 hrs by Annexin V-FITC/propidium iodide staining-based flow cytometric analysis (reference value: 1.64%); format: functional
[4] = system: HepG2; experiment: Antiproliferative activity against human HepG2 cells at 10 uM after 24 hrs by MTS assay relative to control; format: functional; conditions: HepG2, 24 h
[5] = system: A549; experiment: Antiproliferative activity against human A549 cells at 10 uM after 24 hrs by MTS assay relative to control; format: functional; conditions: A549, 24 h
[6] = system: MCF7; experiment: Antiproliferative activity against human MCF7 cells at 10 uM after 24 hrs by MTS assay relative to control; format: functional; conditions: MCF7, 24 h
[7] = system: SW480; experiment: Antiproliferative activity against human SW480 cells at 10 uM after 24 hrs by MTS assay relative to control; format: functional; conditions: SW480, 24 h
[8] = system: HepG2; experiment: Antiproliferative activity against human HepG2 cells after 24 hrs by MTS assay; format: functional, cell-based; conditions: HepG2, 24 h
[9] = system: A549; experiment: Antiproliferative activity against human A549 cells after 24 hrs by MTS assay; format: functional, cell-based
[10] = system: MCF7; experiment: Antiproliferative activity against human MCF7 cells after 24 hrs by MTS assay; format: functional, cell-based; conditions: MCF7, 24 h
[11] = system: SW480; experiment: Antiproliferative activity against human SW480 cells after 24 hrs by MTS assay; format: functional, cell-based; conditions: SW480, 24 h
[12] = system: A549; experiment: Induction of apoptosis in human A549 cells assessed as late apoptotic cells at 2.5 uM after 8 hrs by Annexin V-FITC/propidium iodide staining-based flow cytometric analysis (reference value: 12.02%); format: functional
[13] = system: A549; experiment: Induction of apoptosis in human A549 cells assessed as early apoptotic cells at 5 uM after 8 hrs by Annexin V-FITC/propidium iodide staining-based flow cytometric analysis (reference value: 1.64%); format: functional
[14] = system: A549; experiment: Induction of apoptosis in human A549 cells assessed as late apoptotic cells at 5 uM after 8 hrs by Annexin V-FITC/propidium iodide staining-based flow cytometric analysis (reference value: 12.02%); format: functional
[15] = system: A549; experiment: Induction of apoptosis in human A549 cells assessed as early apoptotic cells at 10 uM after 8 hrs by Annexin V-FITC/propidium iodide staining-based flow cytometric analysis (reference value: 1.64%); format: functional
[16] = system: A549; experiment: Induction of apoptosis in human A549 cells assessed as late apoptotic cells at 10 uM after 8 hrs by Annexin V-FITC/propidium iodide staining-based flow cytometric analysis (reference value: 12.02%); format: functional
[17] = system: A549; experiment: Induction of apoptosis in human A549 cells assessed as early apoptotic cells at 20 uM after 8 hrs by Annexin V-FITC/propidium iodide staining-based flow cytometric analysis (reference value: 1.64%); format: functional
[18] = system: A549; experiment: Induction of apoptosis in human A549 cells assessed as late apoptotic cells at 20 uM after 8 hrs by Annexin V-FITC/propidium iodide staining-based flow cytometric analysis (reference value: 12.02%); format: functional
[19] = system: A549; experiment: Induction of apoptosis in human A549 cells after 8 hrs by Annexin V-FITC/propidium iodide staining-based flow cytometric analysis; format: functional, cell-based
[20] = system: A549; experiment: Antitumor activity against human A549 cells xenografted in BALB/c nude mouse assessed as reduction in tumor mass at 10 mg/kg, ip administered as daily dose for 16 days relative to control; format: functional; conditions: 384 h
[21] = system: A549; experiment: Antitumor activity against human A549 cells xenografted in BALB/c nude mouse assessed as reduction in tumor volume at 10 mg/kg, ip administered as daily dose for 16 days relative to control; format: functional; conditions: 384 h
[22] = system: Mus musculus; experiment: Toxicity in BALB/c nude mouse xenografted with human A549 cells at 10 mg/kg, ip administered as daily dose for 16 days relative to control; format: organism-based; conditions: in vivo, 384 h
[23] = system: Mus musculus; experiment: Toxicity in BALB/c nude mouse xenografted with human A549 cells assessed as change in body weight at 10 mg/kg, ip administered as daily dose for 16 days relative to control; format: organism-based; conditions: in vivo, 384 h
[24] = biological target: T1, Tyrosinase (Homo sapiens) (UniProt P14679); conditions: at 10 µM;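 further: tyrosinase of unspecified origin acting on L-tyrosine, compound preincubated with enzyme for 15 min before adding substrate, inhibition expressed versus control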
T1 sequence (whole entry): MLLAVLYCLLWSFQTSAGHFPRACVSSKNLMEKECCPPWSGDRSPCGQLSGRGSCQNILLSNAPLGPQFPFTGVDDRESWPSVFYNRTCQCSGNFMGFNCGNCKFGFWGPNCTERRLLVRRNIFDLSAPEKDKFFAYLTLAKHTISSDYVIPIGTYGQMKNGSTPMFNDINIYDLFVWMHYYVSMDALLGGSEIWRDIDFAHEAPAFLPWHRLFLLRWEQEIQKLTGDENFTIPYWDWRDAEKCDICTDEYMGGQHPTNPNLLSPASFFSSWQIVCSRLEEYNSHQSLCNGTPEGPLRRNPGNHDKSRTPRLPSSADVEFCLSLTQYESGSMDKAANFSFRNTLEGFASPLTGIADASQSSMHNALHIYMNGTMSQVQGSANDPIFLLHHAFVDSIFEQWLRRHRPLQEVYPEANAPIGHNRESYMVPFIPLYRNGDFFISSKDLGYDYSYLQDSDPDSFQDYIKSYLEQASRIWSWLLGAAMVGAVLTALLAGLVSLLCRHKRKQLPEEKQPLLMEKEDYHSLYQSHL
Description: Inhibition of tyrosinase (unknown origin) using L-tyrosine as substrate at 10 uM preincubated for 15 mins followed by substrate addition relative to control

[25] = biological target: T2, Tyrosine-protein phosphatase non-receptor type 1 (Homo sapiens) (UniProt P18031); conditions: at 10 µM;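 further: recombinant enzyme assay with pNPP substrate, inhibition read after 30 min versus untreated control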
T2 sequence (whole entry): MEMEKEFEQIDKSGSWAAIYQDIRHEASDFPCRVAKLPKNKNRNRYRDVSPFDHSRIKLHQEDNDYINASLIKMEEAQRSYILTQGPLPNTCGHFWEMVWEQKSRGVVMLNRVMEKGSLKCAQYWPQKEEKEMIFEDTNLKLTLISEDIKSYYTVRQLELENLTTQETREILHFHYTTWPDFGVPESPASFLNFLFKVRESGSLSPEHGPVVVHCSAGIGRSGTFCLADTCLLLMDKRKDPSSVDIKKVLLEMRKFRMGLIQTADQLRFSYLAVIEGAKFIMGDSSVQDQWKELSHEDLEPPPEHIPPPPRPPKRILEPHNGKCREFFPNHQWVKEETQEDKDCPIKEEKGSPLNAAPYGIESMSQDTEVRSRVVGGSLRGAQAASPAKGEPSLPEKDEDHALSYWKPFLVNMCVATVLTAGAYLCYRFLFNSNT
Description: Inhibition of recombinant human PTP1B using pNPP as substrate at 10 uM after 30 mins relative to control

- IC50 [8]: 4.6 to 6.6 µM
- IC50 ([9]; A549, 24 h): 4.6 µM
- IC50 [10]: 4.6 to 6.6 µM
- IC50 [11]: 4.6 to 6.6 µM
- inhibition [24]: 3.8%
- inhibition [25]: 80.4%
Compound: CC(C)=CCc1cc2c(cc1O)OCC(c1ccc(O)c3c1OC(C)(C)C=C3)=C2
- inhibition at 10 µM [1]: 36%
- inhibition [2]: 41.6%
- Activity [3]: 3.03%
- inhibition at 10 µM [4]: 93.6%
- inhibition at 10 µM [5]: 87.7%
- inhibition at 10 µM [6]: 90.7%
- inhibition at 10 µM [7]: 94.6%
- Activity [9]: Dose-dependent effect
- Activity [12]: 14.08%
- Activity [13]: 2.42%
- Activity [14]: 17.07%
- Activity [15]: 16.04%
- Activity [16]: 32.67%
- Activity [17]: 22.81%
- Activity [18]: 72.21%
- Activity [19]: Dose-dependent effect
- inhibition in vivo at 10 mg/kg [20]: 39.7%
- inhibition in vivo at 10 mg/kg [21]: 38.9%
- Activity [22]: Non-Toxic
- Activity [23]: Non-Toxic
